Results from patent US12419824B2, “Compounds useful for the treatment and/or care of the skin, hair, nails and/or mucous membranes” (Lubrizol Advanced Materials, Inc., priority 2019, dated 2025).

These substances were tested on Muscle bind like protein 1 (MBNL1) (assay: MBNL1 quantification by TR-FRET in hSkMc from TEBU-BIO (Example 20)). Conditions: 0.5 mg/ml, versus basal control.
Assay type: cell-based, human
Description: (§1) hSkMc (Innoprot) are seeded in 12-well plates at a density of 1.5×10^4 cells/well in Skeletal Muscle Cell Growth Medium (Promocell). After 72 hours incubation, medium is removed and replaced with Skeletal Muscle Cell Differentiation Medium (Promocell). 48 hours after beginning cell differentiation, fresh differentiation medium with 0.5 mg/ml of test items is added. Treatment is continued for 48 hours and non-treated cells are used as basal control. After 48 hours of treatment, cell medium is removed and added cell lysis buffer to wells. Immediately, plates are kept at −80° C. in order to improve protein extraction during the defrosting process. After 72 hours, cells are lysated by shaking the plates in an orbital rotor at room temperature for 45 minutes. Next, cell lysates are collected and assayed to quantify the level of MBNL1 protein and total protein concentration.
(§2) MBNL1 protein levels measurement is performed with Human MBNL1 Assay Kit (Cisbio) according to the manufacturer's protocol. Briefly, the kit is used to perform a TR-FRET for MBNL1 quantification. The protein is detected with the antibodies provided in the kit and quantified by a fluorescence measurement. The quantification is carried out by using a microplate reader (ClarioStar, BMG) set to 665 nm and 620 nm.
(§3) Total protein concentration of cell lysate is determined by using Pierce BCA Protein Assay Kit™ (Thermo Scientific) according to manufacturer's protocol. In brief, after adding Working Reagent to the samples and the standards, the samples are incubated. Afterwards, color change is measured with an absorbance microplate reader (Clariostar™, BMG) at 562 nm. The total protein amount is used to normalize the level of MBNL1 protein concentration obtained by the TR-FRET test in the samples.
The assay is performed as disclosed in Example 7 except that hSkMc from TEBU-BIO (Barcelona, Spain) are used. Different peptides of the invention are tested at a concentration of 0.5 mg/ml.

Point of comparison: “H-Ala-Leu-Lys-Pro-Gln-Thr-NH2 (H-ALKPQT-NH2) [PEP50]”, “% MBNL1” value 119.4%. Against it:
- H-Gly-Val-Arg-Pro-Asn-Thr-NH2 (H-GVRPNT-NH2) [PEP46] — higher, 182.1%
- H-Leu-Lys-Pro-Asn-Thr-NH2 (H-LKPNT-NH2) [PEP40] — lower, 117.3%
- H-Gly-Ile-Lys-Pro-Asn-Thr-NH2 (H-GIKPNT-NH2) [PEP42] — lower, 114.2%
- Ac-Ala-Leu-Lys-Pro-Asn-Thr-OH (Ac-ALKPNT-OH) [PEP27] — higher, 126.1%
- H-Ala-Leu-Lys-Pro-Asn-NH2 (H-ALKPN-NH2) [PEP41] — higher, 138.4%
- H-Ala-Leu-Arg-Pro-Asn-Thr-NH2 (H-ALRPNT-NH2) [PEP30] — higher, 181.3%
- H-Ala-Ile-Arg-Pro-Asn-Thr-NH2 (H-AIRPNT-NH2) [PEP44] — higher, 240.6%
- H-Ala-Leu-Lys-Val-Asn-Thr-NH2 (H-ALKVNT-NH2) [PEP31] — higher, 120.0%

What follows are substances tested on Muscle bind like protein 1 (MBNL1) (assay: MBNL1 quantification in human skeletal muscle cells by TR-FRET (Examples 7, 19)). Conditions: hSkMc, 0.5 mg/mL, as Example 7, versus basal control.
Assay type: cell-based
Description: MBNL1 induction by the peptides of the invention is evaluated by a Time resolved fluorescence resonance energy transfer (TR-FRET) assay. The aim of this study is to investigate the capacity of peptide candidates to increase MBNL1 in human skeletal muscle cells (hSkMc).
as §1, §2, §3
Different peptides of the invention are tested as disclosed in Example 7 at 0.5 mg/mL.

Point of comparison: “Ac-Asp-Val-Tyr-Lys-OH (Ac-DVYK-OH) [PEP4]”, “% MBNL1” value 378.5%. Against it:
- Ac-Asp-Ile-Tyr-Lys-NH2 (Ac-DIYK-NH2) [PEP8] — lower, 190.4%
- Palm-Asp-Val-Tyr-Lys-NH2 (DVYK; HELM PEPTIDE1{[CCCCCCCCCCCCCCCC(=O)[*:2]].D.V.Y.K.[am]}$$$$V2.0; SMILES CCCCCCCCCCCCCCCC(=O)N[C@@H](CC(=O)O)C(=O)N[C@H](C(=O)N[C@@H](Cc1ccc(O)cc1)C(=O)N[C@@H](CCCCN)C(N)=O)C(C)C) [PEP3] — lower, 127.7%
- H-Asp-Val-Tyr-Lys-NH2 (H-DVYK-NH2) [PEP5] — lower, 261.4%
- Ac-Ala-Asp-Val-Tyr-Lys-NH2 (Ac-ADVYK-NH2) [PEP14] — lower, 145.0%
- Ac-Asn-Val-Tyr-Lys-NH2 (Ac-NVYK-NH2) [PEP11] — lower, 145.2%
- Ac-Asp-Val-Tyr-Lys-Ala-NH2 (Ac-DVYKA-NH2) [PEP15] — lower, 145.2%
- Ac-Asp-Val-Tyr-Arg-NH2 (Ac-DVYR-NH2) [PEP10] — lower, 158.3%
- Ac-Glu-Ile-Phe-Arg-NH2 (Ac-EIFR-NH2) [PEP24] — lower, 117.5%
- Ac-Glu-Ile-Tyr-Arg-NH2 (Ac-EIYR-NH2) [PEP23] — lower, 181.4%
- Ac-Glu-Val-Tyr-Lys-NH2 (Ac-EVYK-NH2) [PEP7] — lower, 141.5%
- Ac-Asp-Leu-Tyr-Lys-NH2 (Ac-DLYK-NH2) [PEP12] — lower, 154.4%
- Ac-Glu-Ile-Tyr-Lys-NH2 (Ac-EIYK-NH2) [PEP20] — lower, 214.2%
- Ac-Asp-Val-Phe-Lys-NH2 (Ac-DVFK-NH2) [PEP9] — lower, 134.2%
- Palm-Glu-Val-Tyr-Lys-NH2 (EVYK; HELM PEPTIDE1{[CCCCCCCCCCCCCCCC(=O)[*:2]].E.V.Y.K.[am]}$$$$V2.0; SMILES CCCCCCCCCCCCCCCC(=O)N[C@@H](CCC(=O)O)C(=O)N[C@H](C(=O)N[C@@H](Cc1ccc(O)cc1)C(=O)N[C@@H](CCCCN)C(N)=O)C(C)C) [PEP13] — lower, 147.2%
